Compound `N#Cc1ccc(C=CC(=O)c2ccc(N3CCNCC3)cc2)cc1` [Vb, 4-(3-Oxo-3–(4-(piperazin-1-yl)phenyl)prop-1-enyl)benzonitrile] yielded a melting point of 170 °C.
Consider `N#Cc1ccccc1C=CC(=O)c1ccc(N2CCNCC2)cc1` [Va, 2-(3-Oxo-3-(4-(piperazin-1-yl)phenyl)prop-1-enyl)benzonitrile], for which the melting point was 150 °C.
In the case of `O=C(C=Cc1ccccc1F)c1ccc(N2CCNCC2)cc1` [Vc, 3-(2-Fluorophenyl)-1-(4-(piperazin-1-yl)phenyl)prop-2-en-1-one] it was 176 °C; in that of `O=C(C=Cc1ccco1)c1ccc(N2CCNCC2)cc1` [Vh, 3-(Furan-2-yl)-1-(4-(piperazin-1-yl)phenyl)prop-2-en-1-one], 190 °C.
On to `O=C(C=Cc1cc([N+](=O)[O-])ccc1O)c1ccc(N2CCNCC2)cc1` [Vg, 3-(2-Hydroxy-5-nitrophenyl)-1-(4-(piperazin-1-yl)phenyl)prop-2-en-1-one], for which the melting point was 185 °C.

For the origin of these results see publication PMC7758046, “Novel piperazine–chalcone hybrids and related pyrazoline analogues targeting VEGFR-2 kinase; design, synthesis, molecular docking studies, and anticancer evaluation” (Journal of Enzyme Inhibition and Medicinal Chemistry, 2020).
